Assay results from the supplement of paper PMC10307832.

Key:
Assay in all cases: relative viability (nuclei count vs DMSO), 5 days (fraction); higher = more cells survive
[1] = compound: C1=CC2=NC=CN=C2C=C1/C=C/3\C(=O)NC(=O)S3 + COc1cccc2cc(-c3nc([C@H]4CC[C@H](C(=O)O)CC4)n4ncnc(N)c34)[nH]c12 [OSI-027] (partner 0.5 µM)
Outline: (§1)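 One day after seeding in 1536-well plates, lung cancer cell lines were dosed by pin tool. Dosing was either single-drug or a fixed anchor-drug dose plus five library-drug doses (not always all listed) in √10 steps. After 5 days, nuclei were stained in one fix-and-stain step and counted on 4× images, and relative viability is the nuclei count of treated wells over that of vehicle wells, given as the median of duplicate plates.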

[2] = compound: C1=CC2=NC=CN=C2C=C1/C=C/3\C(=O)NC(=O)S3 + N=C(N)NC(=N)NCCc1ccccc1 [Phenformin] (partner 250 µM)
Outline: as §1

[3] = compound: C1=CC2=NC=CN=C2C=C1/C=C/3\C(=O)NC(=O)S3 + C[C@]1(O)C[C@@H](c2nc(-c3ccc4ccc(-c5ccccc5)nc4c3)c3c(N)nccn32)C1 [Linsitinib] (partner 1 µM)
Outline: as §1

[4] = compound: CCN1CCN(c2ccc(Nc3cc(N(C)C(=O)Nc4c(Cl)c(OC)cc(OC)c4Cl)ncn3)cc2)CC1 [BGJ398] + CCNC(=O)c1noc(-c2cc(C(C)C)c(O)cc2O)c1-c1ccc(CN2CCOCC2)cc1 [Luminespib] (partner 0.01 µM)
Outline: as §1

Row | Cell Line | relative viability ([1]; first compound 0.02 µM) | relative viability ([1]; first compound 0.06325 µM) | relative viability ([1]; first compound 0.2 µM) | relative viability ([1]; first compound 0.6325 µM) | relative viability ([1]; first compound 2 µM) | relative viability ([2]; first compound 0.02 µM) | relative viability ([2]; first compound 0.06325 µM) | relative viability ([2]; first compound 0.2 µM) | relative viability ([2]; first compound 0.6325 µM) | relative viability ([2]; first compound 2 µM) | relative viability ([3]; first compound 0.02 µM) | relative viability ([3]; first compound 0.06325 µM) | relative viability ([3]; first compound 0.2 µM) | relative viability ([3]; first compound 0.6325 µM) | relative viability ([3]; first compound 2 µM) | relative viability ([4]; first compound 0.01 µM) | relative viability ([4]; first compound 0.03162 µM) | relative viability ([4]; first compound 0.1 µM) | relative viability ([4]; first compound 0.3162 µM) | relative viability ([4]; first compound 1 µM)
1 | NCI-H1437 | 0.941 | 0.995 | 0.922 | 0.784 | 0.197 | 0.258 | 0.286 | 0.369 | 0.274 | 0.233 | 0.899 | 1.2 | 1.05 | 0.979 | 0.969 | 1.18 | 1.19 | 1.05 | 1.12 | 1.11
2 | COR-L23 | 0.781 | 0.898 | 0.873 | 0.74 | 0.497 | 0.459 | 0.455 | 0.46 | 0.43 | 0.425 | 0.874 | 0.89 | 0.978 | 0.861 | 0.951 | 0.745 | 0.731 | 0.598 | 0.799 | 0.789
3 | ABC-1 | 0.434 | 0.509 | 0.509 | 0.408 | 0.232 | 0.265 | 0.316 | 0.215 | 0.231 | 0.259 | 0.76 | 0.761 | 0.758 | 1.01 | 0.804 | 0.795 | 0.782 | 0.507 | 0.912 | 0.876
4 | SW 900 | 0.635 | 0.499 | 0.602 | 0.608 | 0.504 | 0.675 | 0.601 | 0.702 | 0.4 | 0.551 |  |  |  |  |  | 0.133 | 0.201 | 0.175 | 0.167 | 0.153
5 | NCI-H838 | 0.448 | 0.437 | 0.438 | 0.399 | 0.226 | 0.664 | 0.737 | 0.596 | 0.461 | 0.36 | 0.955 | 1.03 | 0.958 | 0.913 | 1 | 0.299 | 0.302 | 0.272 | 0.253 | 0.234
6 | NCI-H1648 | 0.238 |  | 0.313 | 0.246 | 0.261 |  |  |  |  |  |  |  |  |  |  |  |  |  |  | 
7 | A549 |  |  |  |  |  | 0.175 | 0.137 | 0.156 | 0.2 | 0.152 | 0.648 | 0.682 | 0.627 | 0.546 | 0.6 |  |  |  |  | 
8 | A-427 | 0.476 | 0.55 | 0.54 | 0.435 | 0.365 | 0.291 | 0.247 | 0.374 | 0.332 | 0.261 | 1.07 | 1.16 | 1.12 | 1.14 | 1.07 | 0.903 | 0.907 | 1 | 0.794 | 0.81
9 | NCI-H1792 | 0.722 | 0.65 | 0.728 | 0.666 | 0.294 | 0.351 | 0.177 | 0.465 | 0.341 | 0.113 | 0.519 | 0.309 | 0.557 | 0.456 | 0.593 | 0.406 | 0.542 | 0.344 | 0.401 | 0.277
10 | LCLC-97TM1 | 0.556 | 0.522 | 0.436 | 0.461 | 0.145 | 0.389 | 0.374 | 0.423 | 0.432 | 0.162 | 0.23 | 0.188 | 0.203 | 0.162 | 0.145 | 0.703 | 0.859 | 0.857 | 0.823 | 0.797
11 | NCI-H1703 |  |  |  |  |  |  |  |  |  |  | 1.04 | 1.13 | 1.1 | 0.696 | 0.741 |  |  |  |  | 
12 | LCLC-103H | 0.431 | 0.493 | 0.489 | 0.377 | 0.308 | 0.325 | 0.322 | 0.351 | 0.354 | 0.25 | 1.05 | 0.799 | 1.03 | 0.976 | 1.08 | 0.982 | 0.961 | 1.07 | 0.931 | 0.708
13 | PC-3 [JPC-3] | 0.711 | 0.777 | 0.783 | 0.767 | 0.636 | 0.478 | 0.542 | 0.467 | 0.487 | 0.487 | 0.889 | 1.01 | 0.879 | 0.923 | 0.963 | 0.63 |  | 0.737 | 0.721 | 0.712
14 | ChaGo-K-1 | 0.567 | 0.58 | 0.544 | 0.424 | 0.352 | 0.45 | 0.466 | 0.516 | 0.35 | 0.369 |  |  |  |  |  | 0.595 | 0.673 | 0.724 | 0.577 | 0.651
15 | Calu-6 |  |  |  |  |  |  |  |  |  |  | 0.946 | 1.13 | 1.05 | 0.899 | 0.876 |  |  |  |  | 
16 | HCC-366 | 0.727 |  | 1.06 | 0.823 | 0.322 | 0.609 |  | 0.632 | 0.612 | 0.575 | 0.636 | 0.832 | 0.734 | 0.501 | 0.638 |  |  |  |  | 
17 | NCI-H2342 | 0.506 | 0.682 | 0.628 | 0.632 | 0.535 | 0.486 | 0.577 | 0.739 | 0.565 | 0.526 |  |  |  |  |  | 0.732 | 0.701 | 0.96 | 0.754 | 0.746
18 | EBC-1 |  |  |  |  |  |  |  |  |  |  | 0.88 | 1.22 | 0.922 | 0.953 | 0.925 |  |  |  |  | 
19 | NCI-H1299 |  |  |  |  |  |  |  |  |  |  | 0.841 | 1.1 | 0.985 | 0.919 | 0.927 |  |  |  |  | 
20 | NCI-H522 | 0.706 | 0.763 | 0.675 | 0.717 | 0.562 | 0.65 | 0.608 | 0.666 | 0.564 | 0.579 |  |  |  |  |  | 1.21 | 1.4 | 1.09 | 0.99 | 1.04
21 | IA-LM |  |  |  |  |  |  |  |  |  |  | 0.516 | 0.729 | 0.607 | 0.606 | 0.694 |  |  |  |  | 
22 | NCI-H2170 | 0.714 | 0.777 | 0.729 | 0.71 | 0.679 | 0.425 | 0.375 | 0.441 | 0.426 | 0.423 |  |  |  |  |  | 0.736 | 0.811 | 0.724 | 0.795 | 1.24
